Where “and” joins values, the source holds several entries; their conditions need not be identical. Equal values may be shown once. Values belong to the compound of their own block, whether it stands above or below them.
Tests used:
SDF-1/CXCR4 [1] = molecular target: T1, SDF-1/CXCR4 (Homo sapiens (Human), UniProt P61073); experiment: cAMP assay (SDF-1/CXCR4-mediated cAMP reduction); format: cell-based; conditions: for concentration effective in counteracting/blocking SDF-1 function: cAMP reduction by SDF-1; for effect of SDF-1 on cAMP reduction: pre-treatment with compound, SDF-1 EC80 150 ng/ml
Procedure: Because the major signaling pathway of CXCR4/SDF-1 involves the pertussis toxin-sensitive G protein Gi, compounds described herein were tested as to whether they inhibited SDF-1/CXCR4-mediated cAMP reduction. The absorption increase at 665 nm was determined by varying the concentration of SDF-1 (0-200 ng/ml) to determine EC80 to be 150 ng/ml.

In vitro Ames test = format: cell-based
hERG channel = hERG channel (Homo sapiens (Human), UniProt Q12809); experiment: hERG channel current (IKr) inhibition; format: biochemical
Procedure: (§1) Sufficiently scorable cells in the presence of S9 were available for 4 hour treatment and in the absence of S9 for a 20 hour treatment. Finally, MSX-122 was tested for its potential to interfere with the rapid delayed rectifier current (IKr) in human ventricles through the cardiac potassium channel, hERG since inhibition of IKr has been reported to be the most common cause of cardiac action potential prolongation by non-cardiac drugs.

hERG channel (IKr) = hERG channel (IKr) (Homo sapiens (Human), UniProt Q12809); experiment: hERG channel current (IKr) inhibition; format: biochemical; conditions: human; 1 μM; read-out: inhibition of hERG channel currents
Procedure: as §1

[2] = molecular target: SDF-1 binding domain of CXCR4 (Homo sapiens (Human), UniProt P61073); experiment: Competitive binding assay against biotin-labeled TN14003; conditions: competition with biotin-labeled TN14003; read-out: Effective concentrations (EC50)
Description: Aa competitive binding assay using biotin-labeled TN14003 and streptavidin-conjugated rhodamine was developed to determine the binding efficiency of new chemical entities to the SDF-1 binding domain of CXCR4.

hot flashes = experiment: Treatment of hot flashes in a patient; format: in vivo, human; conditions: person, 50 mg/day oral, after third treatment
Procedure: An approximately 70 kg person with a history of aggressive high grade serous carcinomy in their right fallopian tube, a complete hysterectomy and bilateral oophorectomy after previous treatments with VEGF-Trap and docetaxel, Carboplatin and taxol and doxil was treated with MSX-122, 50 mg/day oral.

[3] = 5-day repeat dose study in cynomolgus monkeys; format: in vivo
Procedure: (§2) In initial studies, three groups of rats (5 males and 5 females per group) were dosed with 0, 250 and 600 mg/kg of MSX-122 orally once per day for 28 days. […] A 5-day repeat dose study was carried out in two non-naïve cynomolgus monkeys (1 male and 1 female) and two naïve cynomolgus monkeys (1 male and 1 female) dosed with 1,000 and 2,000 mg/kg, respectively, orally once per day for 5 days.

[4] = 28-day oral toxicology study in rats; format: in vivo; conditions: 250 and 600 mg/kg orally once per day for 28 days
Procedure: as §2

[5] = Pharmacokinetic study in rats; format: in vivo; conditions: 10 mg/kg
Description: (§3) Oral bioavailability and sustained plasma exposure was consistently observed in multiple species for certain compounds.

CHO cells = experiment: In vitro chromosome aberration screening test; format: cell-based; conditions: any dose level up to 2 mM, 4 hour with S9, 20 hour without S9
Procedure: as §1

[6] = Initial pharmacokinetic study in mice; format: in vivo; conditions: intraperitoneally (IP) and orally
Description: as §3

[7] = Pharmacokinetic/pharmacodynamic study in cynomolgus monkeys; format: in vivo
Description: as §3

SDF-1/CXCR4 [8] = molecular target: T1, SDF-1/CXCR4; experiment: IC50 vs SDF-1 (table of specific compounds); format: binding
[9] = cynomolgus monkeys, 1,000 and 2,000 mg/kg orally once per day for 5 days
[10] = cynomolgus monkeys, oral 5 and 10 mg/kg

T1 sequence (P61073 whole entry): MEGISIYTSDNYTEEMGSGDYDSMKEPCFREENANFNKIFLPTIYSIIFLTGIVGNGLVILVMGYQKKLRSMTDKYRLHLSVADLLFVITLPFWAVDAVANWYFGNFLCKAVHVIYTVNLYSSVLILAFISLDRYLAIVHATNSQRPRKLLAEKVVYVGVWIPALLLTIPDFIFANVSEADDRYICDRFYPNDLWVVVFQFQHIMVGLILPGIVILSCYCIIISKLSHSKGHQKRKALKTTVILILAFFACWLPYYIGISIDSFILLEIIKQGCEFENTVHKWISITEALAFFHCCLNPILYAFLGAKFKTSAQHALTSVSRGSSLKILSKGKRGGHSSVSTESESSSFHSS
Sequence of SDF-1 binding domain of CXCR4 (P61073 whole entry, the tested form may be a part): as the sequence (P61073 whole entry) above
Sequence of hERG channel (IKr) (Q12809 whole entry): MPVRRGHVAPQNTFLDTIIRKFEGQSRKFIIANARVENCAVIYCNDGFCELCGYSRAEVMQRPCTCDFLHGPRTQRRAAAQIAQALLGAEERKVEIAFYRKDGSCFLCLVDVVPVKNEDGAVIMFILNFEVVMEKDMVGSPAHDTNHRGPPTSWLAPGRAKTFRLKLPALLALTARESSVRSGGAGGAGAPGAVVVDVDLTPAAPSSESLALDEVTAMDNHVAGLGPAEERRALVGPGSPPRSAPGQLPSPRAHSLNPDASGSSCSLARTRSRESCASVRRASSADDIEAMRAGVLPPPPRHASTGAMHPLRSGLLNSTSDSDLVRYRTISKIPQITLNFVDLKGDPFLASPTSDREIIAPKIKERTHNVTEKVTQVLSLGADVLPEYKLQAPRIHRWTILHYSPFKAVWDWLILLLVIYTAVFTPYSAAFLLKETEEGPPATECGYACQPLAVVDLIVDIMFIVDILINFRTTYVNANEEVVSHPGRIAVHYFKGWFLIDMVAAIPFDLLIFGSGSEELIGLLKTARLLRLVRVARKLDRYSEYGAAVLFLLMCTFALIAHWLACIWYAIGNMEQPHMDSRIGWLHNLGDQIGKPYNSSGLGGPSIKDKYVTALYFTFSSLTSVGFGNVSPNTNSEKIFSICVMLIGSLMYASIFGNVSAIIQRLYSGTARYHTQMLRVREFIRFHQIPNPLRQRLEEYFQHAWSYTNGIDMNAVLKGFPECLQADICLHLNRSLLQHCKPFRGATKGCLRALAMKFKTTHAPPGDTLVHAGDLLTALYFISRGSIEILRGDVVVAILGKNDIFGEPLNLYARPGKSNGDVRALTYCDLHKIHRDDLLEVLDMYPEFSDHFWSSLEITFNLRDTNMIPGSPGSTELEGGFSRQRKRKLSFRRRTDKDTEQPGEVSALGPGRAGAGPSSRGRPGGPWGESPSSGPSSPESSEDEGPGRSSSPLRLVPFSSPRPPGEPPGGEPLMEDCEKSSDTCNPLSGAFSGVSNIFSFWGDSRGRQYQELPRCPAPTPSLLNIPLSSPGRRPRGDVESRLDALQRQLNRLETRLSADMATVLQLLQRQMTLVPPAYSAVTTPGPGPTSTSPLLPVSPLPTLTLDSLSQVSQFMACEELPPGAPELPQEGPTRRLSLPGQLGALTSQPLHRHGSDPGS
Sequence of hERG channel (Q12809 whole entry): as above

Compound: c1cc(CN2CCCNCCNCCCNCC2)ccc1CN1CCCNCCNCCCNCC1 [AMD-3100, reference compound]
- concentration effective in counteracting/blocking SDF-1 function (SDF-1/CXCR4 [1]): ~1000 nM
- effect of SDF-1 on cAMP reduction (SDF-1/CXCR4 [1]): blocked significantly in a dose-dependent manner

Compound: c1cnc(NCc2ccc(CNc3ncccn3)cc2)nc1 [MSX-122, N-(4-((pyrimidin-2-ylamino)methyl)benzyl)-pyrimidin-2-amine]
- mutagenicity (In vitro Ames test): no evidence of mutagenicity
- inhibitory effect on hERG channel currents (hERG channel): do not exert a significant inhibitory effect
- inhibition at 1 µM (hERG channel (IKr)): 0.2%
- EC50 [2]: 0.0006 µM
- hot flashes (hot flashes): resolved greatly
- Cmax ([3]; both sexes, cynomolgus monkey, in vivo, po, cynomolgus monkeys, 1,000 and 2,000 mg/kg orally once per day for 5 days): 5.1 µM to 12 µM and 1500 ng/mL to 3500 ng/mL
- gross necropsy ([3]; cynomolgus monkeys dosed at 2000 mg/kg): no abnormalities or signs of toxicity
- blood serum chemistry [3, 9]: no abnormalities
- plasma concentrations maintained throughout the study [3, 9]: micromolar
- signs or symptoms of toxicity [3, 9]: No drug-related signs or symptoms of toxicity
- clinical observations (stool) ([3]; cynomolgus monkeys, 1,000 and 2,000 mg/kg, may have been caused by excipients): loose and watery stool in a subset of the animals
- signs or symptoms of toxicity during the study [4]: No signs or symptoms of toxicity
- toxicity upon termination from blood serum chemistry or gross necropsy [4]: no toxicity was observed
- plasma concentrations maintained throughout the study ([4]; after day 1): micromolar
- Cmax ([4]; both sexes, rat, in vivo, po): 2000 ng/mL to 4000 ng/mL and 6.8 µM to 13.6 µM
- concentration effective in counteracting/blocking SDF-1 function (SDF-1/CXCR4 [1]): 10 nM
- effect of SDF-1 on cAMP reduction (SDF-1/CXCR4 [1]): blocked significantly in a dose-dependent manner
- plasma levels ([5]; for 10 hours): above 100 ng/ml and > 342 nM
- Tmax ([5]; rat, plasma, oral, read-out: initial Tmax (converted)): ~30 min
- structural or numerical chromosome aberrations (CHO cells): no statistically significant increase in structural or numerical chromosome aberrations
- blood levels [6]: sustained blood levels
- half lives [7, 10]: support once per day dosing
- plasma concentrations [7, 10]: micromolar
- pharmacokinetics / dose proportionality of plasma levels ([7]; female cynomolgus monkeys, oral 1, 5 and 10 mg/kg): sustained pharmacokinetics with plasma levels that were relatively dose proportional

Compound: Cc1ccc(NCc2ccc(CNc3ccc(C)cc3)cc2)cc1 [MSX-139]
- IC50 (SDF-1/CXCR4 [8]): 10 nM

Compound: c1cncc(NCc2ccc(CNc3cccnc3)cc2)c1 [MSX-163]
- IC50 (SDF-1/CXCR4 [8]): 10 nM

Compound: c1ccc(NCCc2ccc(CCNc3ccccc3)cc2)cc1 [MSX-170]
- IC50 (SDF-1/CXCR4 [8]): < 100 nM

Compound: Cc1c(C)c(CNc2ccccc2)c(C)c(C)c1CNc1ccccc1 [MSX-172]
- IC50 (SDF-1/CXCR4 [8]): 10 nM

Compound: c1ccc(NCc2ccc(CNc3ccccc3)c3ccccc23)cc1 [MSX-175]
- IC50 (SDF-1/CXCR4 [8]): > 100 nM

Compound: Clc1nc(Cl)nc(NCc2ccc(CNc3nc(Cl)nc(Cl)n3)cc2)n1 [MSX-190]
- IC50 (SDF-1/CXCR4 [8]): 10 nM

Compound: COc1ccccc1NCc1ccc(CNc2ccccc2OC)cc1 [MSX-206]
- IC50 (SDF-1/CXCR4 [8]): 10 nM

Compound: COCc1ccc(CNc2ncccn2)cc1 [MSX-208]
- IC50 (SDF-1/CXCR4 [8]): 100 nM

Compound: c1ccc(OCc2ccc(CNc3ncccn3)cc2)cc1 [MSX-209]
- IC50 (SDF-1/CXCR4 [8]): 10 nM

Compound: c1ccc(SCc2ccc(CSc3ccccc3)cc2)cc1 [MSX-211]
- IC50 (SDF-1/CXCR4 [8]): 1000 nM

Compound: c1ccc(OCc2ccc(CNc3ncccn3)cc2)nc1 [MSX-212]
- IC50 (SDF-1/CXCR4 [8]): 100 nM

Second part, the compound after the results:

- IC50 (SDF-1/CXCR4 [8]): 100 nM
Compound: O=C(O)c1cccc(NCc2ccc(CNc3cccc(C(=O)O)c3)cc2)c1 [MSX-214]

- IC50 (SDF-1/CXCR4 [8]): 10 nM
Compound: Clc1ccc(NCc2ccc(CNc3ncccn3)cc2)nc1 [MSX-219]

- melting point: 278 to 281 °C (dec.)
Compound: N=C(N)NCc1ccc(CNC(=N)N)cc1 [WZ5S]

- melting point: 42 to 43 °C
Compound: c1ccc(NCCNCc2ccc(CNCCNc3ccccc3)cc2)cc1 [WZ8]

- melting point: 126 to 127 °C
Compound: c1ccc(NCc2ccc(CNc3ccccc3)cc2)cc1 [WZ13]

- melting point: 318 to 320 °C
Compound: O=C(Nc1ccccc1)c1cc(C(=O)Nc2ccccc2)cc(C(=O)Nc2ccccc2)c1 [WZ20]
